Laboratory results as given in PubChem BioAssay AID2060620 (Molecular Pharmacology Branch, DTP, NCI, 2025).
Each block holds one compound with its values, some of them ahead of it.

Test system: 328373-195-R-J1-PDC complex spheroids, viability % test/control
Assay: Anticancer human tumor 328373-195-R-J1-PDC patient-derived head and neck squamous carcinoma cell line growth inhibition [CLK]
Conditions: for IC50: curve of first compound; for viability, T/C: stronger effect = lower value
Method in brief: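 Multi-cell-type spheroids combined patient-derived tumor cells with HUVEC endothelial cells and human mesenchymal stem cells. Paired agents were dosed in half-log steps down from about clinical Cmax, or from 10 microM where Cmax was unknown.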

[1] = second compound 0.0316 µM, first compound 0.0316 µM
[2] = second compound 0.0316 µM, first compound 0.1 µM
[3] = second compound 0.1 µM, first compound 0.0316 µM
[4] = second compound 0.1 µM, first compound 0.1 µM
[5] = second compound 0.316 µM, first compound 0.0316 µM
[6] = second compound 0.316 µM, first compound 0.1 µM
[7] = second compound 1 µM, first compound 0.0316 µM
[8] = second compound 1 µM, first compound 0.1 µM
[9] = second compound 3.16 µM, first compound 0.0316 µM
[10] = second compound 3.16 µM, first compound 0.1 µM
[11] = second compound 10 µM, first compound 0.0316 µM
[12] = second compound 10 µM, first compound 0.1 µM
[13] = second compound 0.0316 µM, first compound 0.316 µM
[14] = second compound 0.0316 µM, first compound 1 µM
[15] = second compound 0.0316 µM, first compound 3.16 µM
[16] = second compound 0.0316 µM, first compound 10 µM
[17] = second compound 0.1 µM, first compound 0.316 µM
[18] = second compound 0.1 µM, first compound 1 µM
[19] = second compound 0.1 µM, first compound 3.16 µM
[20] = second compound 0.1 µM, first compound 10 µM
[21] = second compound 0.316 µM, first compound 0.316 µM
[22] = second compound 0.316 µM, first compound 1 µM
[23] = second compound 0.316 µM, first compound 3.16 µM
[24] = second compound 0.316 µM, first compound 10 µM
[25] = second compound 1 µM, first compound 0.316 µM
[26] = second compound 1 µM, first compound 1 µM
[27] = second compound 1 µM, first compound 3.16 µM
[28] = second compound 1 µM, first compound 10 µM
[29] = second compound 3.16 µM, first compound 0.316 µM
[30] = second compound 3.16 µM, first compound 1 µM
[31] = second compound 3.16 µM, first compound 3.16 µM
[32] = second compound 3.16 µM, first compound 10 µM
[33] = second compound 10 µM, first compound 0.316 µM
[34] = second compound 10 µM, first compound 1 µM
[35] = second compound 10 µM, first compound 3.16 µM
[36] = second compound 10 µM, first compound 10 µM
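Also: spheroids exposed to the agents for 7 days.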

IC50 (second compound 0.0316 µM): 40.6 nM
IC50 (second compound 0.1 µM): < 0.316 nM
IC50 (second compound 0.316 µM): < 0.316 nM
IC50 (second compound 1 µM): < 0.316 nM
IC50 (second compound 3.16 µM): < 0.316 nM
IC50 (second compound 10 µM): < 0.316 nM
SMILES: Cn1ncnc1[C@H]1c2n[nH]c(=O)c3cc(F)cc(c23)N[C@@H]1c1ccc(F)cc1 + CNC(=O)c1ccc(Nc2nc(OC3CCCC3)c3c(-c4ccc5nc(C)oc5c4)c[nH]c3n2)c(OC)c1
viability, T/C (second compound 0.0316 µM, first compound 0.000316 µM): 51.9%
viability, T/C (second compound 0.0316 µM, first compound 0.001 µM): 51.6%
viability, T/C (second compound 0.0316 µM, first compound 0.00316 µM): 47.8%
viability, T/C (second compound 0.0316 µM, first compound 0.01 µM): 66.8%
viability, T/C [1]: 51.7%
viability, T/C [2]: 40.6%
viability, T/C (second compound 0.1 µM, first compound 0.000316 µM): 9.58%
viability, T/C (second compound 0.1 µM, first compound 0.001 µM): 9.68%
viability, T/C (second compound 0.1 µM, first compound 0.00316 µM): 9.49%
viability, T/C (second compound 0.1 µM, first compound 0.01 µM): 11.1%
viability, T/C [3]: 9.25%
viability, T/C [4]: 12.2%
viability, T/C (second compound 0.316 µM, first compound 0.000316 µM): 9.25%
viability, T/C (second compound 0.316 µM, first compound 0.001 µM): 10.3%
viability, T/C (second compound 0.316 µM, first compound 0.00316 µM): 8.72%
viability, T/C (second compound 0.316 µM, first compound 0.01 µM): 10.3%
viability, T/C [5]: 9.93%
viability, T/C [6]: 10.4%
viability, T/C (second compound 1 µM, first compound 0.000316 µM): 9.2%
viability, T/C (second compound 1 µM, first compound 0.001 µM): 9.13%
viability, T/C (second compound 1 µM, first compound 0.00316 µM): 9.32%
viability, T/C (second compound 1 µM, first compound 0.01 µM): 11.8%
viability, T/C [7]: 9.07%
viability, T/C [8]: 8.36%
viability, T/C (second compound 3.16 µM, first compound 0.000316 µM): 9.59%
viability, T/C (second compound 3.16 µM, first compound 0.001 µM): 9.4%
viability, T/C (second compound 3.16 µM, first compound 0.00316 µM): 9.78%
viability, T/C (second compound 3.16 µM, first compound 0.01 µM): 10%
viability, T/C [9]: 11%
viability, T/C [10]: 9.49%
viability, T/C (second compound 10 µM, first compound 0.000316 µM): 11.2%
viability, T/C (second compound 10 µM, first compound 0.001 µM): 11.1%
viability, T/C (second compound 10 µM, first compound 0.00316 µM): 8.71%
viability, T/C (second compound 10 µM, first compound 0.01 µM): 11.8%
viability, T/C [11]: 12.4%
viability, T/C [12]: 8.72%

IC50 (second compound 0.0316 µM): < 31.6 nM
IC50 (second compound 0.1 µM): < 31.6 nM
IC50 (second compound 0.316 µM): < 31.6 nM
IC50 (second compound 1 µM): < 31.6 nM
IC50 (second compound 3.16 µM): < 31.6 nM
IC50 (second compound 10 µM): < 31.6 nM
SMILES: Nc1ccn(C2OC(CO)C(O)C2(F)F)c(=O)n1 (stereo unspecified) + CNC(=O)c1ccc(Nc2nc(OC3CCCC3)c3c(-c4ccc5nc(C)oc5c4)c[nH]c3n2)c(OC)c1
viability, T/C [1]: 2.44%
viability, T/C [2]: 1.85%
viability, T/C [13]: 3.64%
viability, T/C [14]: 2.74%
viability, T/C [15]: 2.63%
viability, T/C [16]: 1.95%
viability, T/C [3]: 3.4%
viability, T/C [4]: 1.85%
viability, T/C [17]: 2.02%
viability, T/C [18]: 2.08%
viability, T/C [19]: 2.83%
viability, T/C [20]: 4.18%
viability, T/C [5]: 3.23%
viability, T/C [6]: 2.68%
viability, T/C [21]: 4.06%
viability, T/C [22]: 2.46%
viability, T/C [23]: 2.95%
viability, T/C [24]: 1.84%
viability, T/C [7]: 4.36%
viability, T/C [8]: 1.86%
viability, T/C [25]: 1.79%
viability, T/C [26]: 2.35%
viability, T/C [27]: 3.18%
viability, T/C [28]: 3.19%
viability, T/C [9]: 5.21%
viability, T/C [10]: 3.42%
viability, T/C [29]: 4.01%
viability, T/C [30]: 2.03%
viability, T/C [31]: 2.01%
viability, T/C [32]: 1.88%
viability, T/C [11]: 6.95%
viability, T/C [12]: 3.09%
viability, T/C [33]: 3.18%
viability, T/C [34]: 2.49%
viability, T/C [35]: 2.14%
viability, T/C [36]: 1.82%

IC50 (second compound 0.0316 µM): < 31.6 nM
IC50 (second compound 0.1 µM): < 31.6 nM
IC50 (second compound 0.316 µM): < 31.6 nM
IC50 (second compound 1 µM): < 31.6 nM
IC50 (second compound 3.16 µM): < 31.6 nM
IC50 (second compound 10 µM): < 31.6 nM
SMILES: O=c1[nH]cc(F)c(=O)[nH]1 + CNC(=O)c1ccc(Nc2nc(OC3CCCC3)c3c(-c4ccc5nc(C)oc5c4)c[nH]c3n2)c(OC)c1
viability, T/C [1]: 37%
viability, T/C [2]: 18.3%
viability, T/C [13]: 8.48%
viability, T/C [14]: 5.66%
viability, T/C [15]: 6.31%
viability, T/C [16]: 11.2%
viability, T/C [3]: 8.64%
viability, T/C [4]: 5.34%
viability, T/C [17]: 5%
viability, T/C [18]: 3.23%
viability, T/C [19]: 2.62%
viability, T/C [20]: 7.23%
viability, T/C [5]: 7.44%
viability, T/C [6]: 6.09%
viability, T/C [21]: 4.45%
viability, T/C [22]: 4.15%
viability, T/C [23]: 4.13%
viability, T/C [24]: 6.8%
viability, T/C [7]: 8.18%
viability, T/C [8]: 7.54%
viability, T/C [25]: 3.88%
viability, T/C [26]: 2.98%
viability, T/C [27]: 2.83%
viability, T/C [28]: 4.21%
viability, T/C [9]: 11%
viability, T/C [10]: 7.15%
viability, T/C [29]: 3.65%
viability, T/C [30]: 2.93%
viability, T/C [31]: 3.84%
viability, T/C [32]: 4.43%
viability, T/C [11]: 12.2%
viability, T/C [12]: 8.27%
viability, T/C [33]: 4.41%
viability, T/C [34]: 3.11%
viability, T/C [35]: 3.46%
viability, T/C [36]: 1.56%
